Like-named read-outs stand apart in the source and are kept apart here.
Conditions: in vivo
Experimental: Patients were considered evaluable for safety if they received ≥1 injection of the study drug. All adverse events (AEs) were graded per the National Cancer Institute’s Common Terminology Criteria for Adverse Events (CTCAE) version 4.03.
Grade ≤3 drug-related fever or skin or SC tissue disorders localised to the site of injection—including grade ≤3 rash, pruritus, skin induration or pain—were not considered DLTs.
Data for patients with NC and lymphoma were evaluated but not included in the MTD determination.

Cc1sc2c(c1C)C(c1ccc(Cl)cc1)=N[C@@H](CC(=O)NCCCN1CCN(C)CC1)c1nnc(C)n1-2 [RO6870810]
Treatment-emergent AE: Injection site induration (human, 0.06 mg/kg): 0 n (%)
Treatment-emergent AE: Injection site pain (human, 0.06 mg/kg): 1 (33.3) n (%)
Treatment-emergent AE: Injection site pruritus (human, 0.06 mg/kg): 1 (33.3) n (%)
Treatment-emergent AE: Injection site reaction (human, 0.06 mg/kg): 0 n (%)
Treatment-emergent AE: Injection site swelling (human, 0.06 mg/kg): 0 n (%)
Treatment-emergent AE: Malaise (human, 0.06 mg/kg): 1 (33.3) n (%)
Treatment-emergent AE: Myalgia (human, 0.06 mg/kg): 0 n (%)
Treatment-emergent AE: Nausea (human, 0.06 mg/kg): 0 n (%)
Treatment-emergent AE: Thrombocytopenia (human, 0.06 mg/kg): 0 n (%)
Treatment-emergent AE: Vomiting (human, 0.06 mg/kg): 0 n (%)
Treatment-emergent AE: Abdominal pain (human, 0.1 mg/kg): 1 (25.0) n (%)
Treatment-emergent AE: Anemia (human, 0.1 mg/kg): 2 (50.0) n (%)
Treatment-emergent AE: Back pain (human, 0.1 mg/kg): 2 (50.0) n (%)
Treatment-emergent AE: Blood bilirubin increased (human, 0.1 mg/kg): 1 (25.0) n (%)
Treatment-emergent AE: Constipation (human, 0.1 mg/kg): 3 (75.0) n (%)
Treatment-emergent AE: Cough (human, 0.1 mg/kg): 1 (25.0) n (%)
Treatment-emergent AE: Decreased appetite (human, 0.1 mg/kg): 4 (100) n (%)
Treatment-emergent AE: Dehydration (human, 0.1 mg/kg): 2 (50.0) n (%)
Treatment-emergent AE: Diarrhea (human, 0.1 mg/kg): 3 (75.0) n (%)
Treatment-emergent AE: Dizziness (human, 0.1 mg/kg): 2 (50.0) n (%)
Treatment-emergent AE: Dry mouth (human, 0.1 mg/kg): 1 (25.0) n (%)
Treatment-emergent AE: Dysgeusia (human, 0.1 mg/kg): 0 n (%)
Treatment-emergent AE: Dyspnea (human, 0.1 mg/kg): 1 (25.0) n (%)
Treatment-emergent AE: Fatigue (human, 0.1 mg/kg): 3 (75.0) n (%)
Treatment-emergent AE: Headache (human, 0.1 mg/kg): 1 (25.0) n (%)
Treatment-emergent AE: Hypomagnesaemia (human, 0.1 mg/kg): 0 n (%)
Treatment-emergent AE: Injection site erythema (human, 0.1 mg/kg): 2 (50.0) n (%)
Treatment-emergent AE: Injection site induration (human, 0.1 mg/kg): 3 (75.0) n (%)
Treatment-emergent AE: Injection site pain (human, 0.1 mg/kg): 1 (25.0) n (%)
Treatment-emergent AE: Injection site pruritus (human, 0.1 mg/kg): 0 n (%)
Treatment-emergent AE: Injection site reaction (human, 0.1 mg/kg): 0 n (%)
Treatment-emergent AE: Injection site swelling (human, 0.1 mg/kg): 1 (25.0) n (%)
Treatment-emergent AE: Malaise (human, 0.1 mg/kg): 1 (25.0) n (%)
Treatment-emergent AE: Myalgia (human, 0.1 mg/kg): 1 (25.0) n (%)
Treatment-emergent AE: Nausea (human, 0.1 mg/kg): 2 (50.0) n (%)
Treatment-emergent AE: Thrombocytopenia (human, 0.1 mg/kg): 0 n (%)
Treatment-emergent AE: Vomiting (human, 0.1 mg/kg): 4 (100) n (%)
Treatment-emergent AE: Abdominal pain (human, 0.2 mg/kg): 1 (25.0) n (%)
Treatment-emergent AE: Anemia (human, 0.2 mg/kg): 0 n (%)
Treatment-emergent AE: Back pain (human, 0.2 mg/kg): 1 (25.0) n (%)
Treatment-emergent AE: Blood bilirubin increased (human, 0.2 mg/kg): 1 (25.0) n (%)
Treatment-emergent AE: Constipation (human, 0.2 mg/kg): 1 (25.0) n (%)
Treatment-emergent AE: Cough (human, 0.2 mg/kg): 0 n (%)
Treatment-emergent AE: Decreased appetite (human, 0.2 mg/kg): 3 (75.0) n (%)
Treatment-emergent AE: Dehydration (human, 0.2 mg/kg): 0 n (%)
Treatment-emergent AE: Diarrhea (human, 0.2 mg/kg): 1 (25.0) n (%)
Treatment-emergent AE: Dizziness (human, 0.2 mg/kg): 1 (25.0) n (%)
Treatment-emergent AE: Dry mouth (human, 0.2 mg/kg): 1 (25.0) n (%)
Treatment-emergent AE: Dysgeusia (human, 0.2 mg/kg): 1 (25.0) n (%)
Treatment-emergent AE: Dyspnea (human, 0.2 mg/kg): 2 (50.0) n (%)
Treatment-emergent AE: Fatigue (human, 0.2 mg/kg): 2 (50.0) n (%)
Treatment-emergent AE: Headache (human, 0.2 mg/kg): 1 (25.0) n (%)
Treatment-emergent AE: Hypomagnesaemia (human, 0.2 mg/kg): 0 n (%)
Treatment-emergent AE: Injection site erythema (human, 0.2 mg/kg): 3 (75.0) n (%)
Treatment-emergent AE: Injection site induration (human, 0.2 mg/kg): 2 (50.0) n (%)
Treatment-emergent AE: Injection site pain (human, 0.2 mg/kg): 2 (50.0) n (%)
Treatment-emergent AE: Injection site pruritus (human, 0.2 mg/kg): 1 (25.0) n (%)
Treatment-emergent AE: Injection site reaction (human, 0.2 mg/kg): 0 n (%)
Treatment-emergent AE: Injection site swelling (human, 0.2 mg/kg): 2 (50.0) n (%)
Treatment-emergent AE: Malaise (human, 0.2 mg/kg): 1 (25.0) n (%)
Treatment-emergent AE: Myalgia (human, 0.2 mg/kg): 0 n (%)
Treatment-emergent AE: Nausea (human, 0.2 mg/kg): 2 (50.0) n (%)
Treatment-emergent AE: Thrombocytopenia (human, 0.2 mg/kg): 0 n (%)
Treatment-emergent AE: Vomiting (human, 0.2 mg/kg): 2 (50.0) n (%)
Treatment-emergent AE: Abdominal pain (human, 0.3 mg/kg): 1 (16.7) n (%)
Treatment-emergent AE: Anemia (human, 0.3 mg/kg): 2 (33.3) n (%)
Treatment-emergent AE: Back pain (human, 0.3 mg/kg): 0 n (%)
Treatment-emergent AE: Blood bilirubin increased (human, 0.3 mg/kg): 1 (16.7) n (%)
Treatment-emergent AE: Constipation (human, 0.3 mg/kg): 0 n (%)
Treatment-emergent AE: Cough (human, 0.3 mg/kg): 0 n (%)
Treatment-emergent AE: Decreased appetite (human, 0.3 mg/kg): 6 (100) n (%)
Treatment-emergent AE: Dehydration (human, 0.3 mg/kg): 2 (33.3) n (%)
Treatment-emergent AE: Diarrhea (human, 0.3 mg/kg): 2 (33.3) n (%)
Treatment-emergent AE: Dizziness (human, 0.3 mg/kg): 1 (16.7) n (%)
Treatment-emergent AE: Dry mouth (human, 0.3 mg/kg): 2 (33.3) n (%)
Treatment-emergent AE: Dysgeusia (human, 0.3 mg/kg): 1 (16.7) n (%)
Treatment-emergent AE: Dyspnea (human, 0.3 mg/kg): 0 n (%)
Treatment-emergent AE: Fatigue (human, 0.3 mg/kg): 2 (33.3) n (%)
Treatment-emergent AE: Headache (human, 0.3 mg/kg): 3 (50.0) n (%)
Treatment-emergent AE: Hypomagnesaemia (human, 0.3 mg/kg): 1 (16.7) n (%)
Treatment-emergent AE: Injection site erythema (human, 0.3 mg/kg): 3 (50.0) n (%)
Treatment-emergent AE: Injection site induration (human, 0.3 mg/kg): 2 (33.3) n (%)
Treatment-emergent AE: Injection site pain (human, 0.3 mg/kg): 2 (33.3) n (%)
Treatment-emergent AE: Injection site pruritus (human, 0.3 mg/kg): 2 (33.3) n (%)
Treatment-emergent AE: Injection site reaction (human, 0.3 mg/kg): 0 n (%)
Treatment-emergent AE: Injection site swelling (human, 0.3 mg/kg): 2 (33.3) n (%)
Treatment-emergent AE: Malaise (human, 0.3 mg/kg): 1 (16.7) n (%)
Treatment-emergent AE: Myalgia (human, 0.3 mg/kg): 3 (50.0) n (%)
Treatment-emergent AE: Nausea (human, 0.3 mg/kg): 3 (50.0) n (%)
Treatment-emergent AE: Thrombocytopenia (human, 0.3 mg/kg): 1 (16.7) n (%)
Treatment-emergent AE: Vomiting (human, 0.3 mg/kg): 2 (33.3) n (%)
Treatment-emergent AE: Injection site swelling (human, 0.65 mg/kg): 0 n (%)
Recommended phase 2 dose (human, sc): 0.65 mg/kg
DLTs due to thrombocytopenia: no DLTs due to thrombocytopenia
Left ventricular ejection fraction after reduction: 45–50%

Source: PMC7884382, “A Phase 1 study of RO6870810, a novel bromodomain and extra-terminal protein inhibitor, in patients with NUT carcinoma, other solid tumours, or diffuse large B-cell lymphoma” (British Journal of Cancer, 2020)
